Read-outs that look alike come from different tables or passages of the source.
Key:
Type in all cases: in vivo
[1] = tested on: barnyardgrass (Echinochloa crus-galli); test: Test B pre-/postemergence plant response; details: Echinochloa crus-galli, 240 h, read-out: Plant response rating, Barnyardgrass; for pest or weed control at 125 g/ha: 125 g ai/ha; for pest or weed control at 500 g/ha: 500 g ai/ha
How it was run: (§1)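 Seeds in loam–sand blend given preemergence soil spray; separately, plants at one- to two-leaf stage (2–10 cm) sprayed postemergence, compounds in non-phytotoxic solvent with surfactant. Injury rated visually versus untreated controls after ~10 days in greenhouse, 0 (no effect) to 100 (complete control).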

corn (Zea mays) [2] = test: Test B pre-/postemergence plant response; details: Zea mays, 240 h; for Corn plant response rating (crop injury, 0 = no effect, 100 = complete kill) at 125 g/ha: 125 g ai/ha; for Corn plant response rating (crop injury, 0 = no effect, 100 = complete kill) at 500 g/ha: 500 g ai/ha
How it was run: as §1

[3] = tested on: giant foxtail (Setaria faberii); test: Test B pre-/postemergence plant response; details: Setaria faberi, 240 h, read-out: Plant response rating, Foxtail, Giant; for pest or weed control at 125 g/ha: 125 g ai/ha; for pest or weed control at 500 g/ha: 500 g ai/ha
How it was run: as §1

[4] = tested on: pigweed (Amaranthus retroflexus); test: Test B pre-/postemergence plant response; details: Amaranthus retroflexus, 240 h, read-out: Plant response rating, Pigweed; for pest or weed control at 125 g/ha: 125 g ai/ha; for pest or weed control at 500 g/ha: 500 g ai/ha
How it was run: as §1

[5] = tested on: wheat (Triticum aestivum); test: Test B pre-/postemergence plant response; details: Triticum aestivum, 240 h, read-out: Plant response rating, Wheat; for plant injury at 125 g/ha: 125 g ai/ha; for plant injury at 500 g/ha: 500 g ai/ha
How it was run: as §1

[6] = tested on: Italian ryegrass (Lolium multiflorum); test: Test D pre-/postemergence plant response; details: Lolium multiflorum, pre-emergence, Preemergence, scale 0 to 100 (0 no effect, 100 complete control), read-out: Plant response rating, Ryegrass, Italian
How it was run: (§2)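 Greenhouse herbicidal response, both pre- and postemergence applications, with solvent/surfactant formulation. Postemergence plants were at 1- to 4-leaf stage. Visual scores 0–100 relative to controls, taken 13 to 15 days later.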

[7] = tested on: barnyardgrass (Echinochloa crus-galli); test: Test D pre-/postemergence plant response; details: Echinochloa crus-galli, pre-emergence, Preemergence
How it was run: as §2

[8] = tested on: blackgrass (Alopecurus myosuroides); test: Test D pre-/postemergence plant response; details: Alopecurus myosuroides, pre-emergence, Preemergence, scale 0 to 100 (0 no effect, 100 complete control), read-out: Plant response rating, Blackgrass
How it was run: as §2

corn (Zea mays) [9] = test: Test D pre-/postemergence plant response; details: Zea mays, pre-emergence, Preemergence, scale 0 to 100 (0 no effect, 100 complete control)
How it was run: as §2

[10] = tested on: galium (catchweed bedstraw, Galium aparine); test: Test D pre-/postemergence plant response; details: Galium, pre-emergence, Preemergence, scale 0 to 100 (0 no effect, 100 complete control), read-out: Plant response rating, Galium
How it was run: as §2

[11] = tested on: giant foxtail (Setaria faberii); test: Test D pre-/postemergence plant response; details: Setaria faberi, pre-emergence, Preemergence, scale 0 to 100 (0 no effect, 100 complete control), read-out: Plant response rating, Foxtail, Giant
How it was run: as §2

[12] = tested on: lambsquarters (Chenopodium album); test: Test D pre-/postemergence plant response; details: Chenopodium album, pre-emergence, Preemergence, scale 0 to 100 (0 no effect, 100 complete control), read-out: Plant response rating, Lambsquarters
How it was run: as §2

[13] = tested on: morningglory (Ipomoea coccinea); test: Test D pre-/postemergence plant response; details: Ipomoea, pre-emergence, Preemergence, scale 0 to 100 (0 no effect, 100 complete control), read-out: Plant response rating, Morningglory
How it was run: as §2

[14] = tested on: pigweed (Amaranthus retroflexus); test: Test D pre-/postemergence plant response; details: Amaranthus retroflexus, pre-emergence, Preemergence, scale 0 to 100 (0 no effect, 100 complete control), read-out: Plant response rating, Pigweed
How it was run: as §2

[15] = tested on: ragweed (common ragweed, Ambrosia elatior); test: Test D pre-/postemergence plant response; details: Ambrosia artemisiifolia, pre-emergence, Preemergence, scale 0 to 100 (0 no effect, 100 complete control), read-out: Plant response rating, Ragweed
How it was run: as §2

[16] = tested on: waterhemp (common waterhemp, Amaranthus rudis); test: Test D pre-/postemergence plant response; details: Amaranthus tuberculatus, pre-emergence, Preemergence, scale 0 to 100 (0 no effect, 100 complete control), read-out: Plant response rating, Waterhemp
How it was run: as §2

[17] = post-emergence, postemergence, 0 to 100 scale, 0 no effect, 100 complete control
[18] = post-emergence, Postemergence, 0 to 100 scale (0 no effect, 100 complete control)
[19] = pre-emergence, Preemergence, 0 to 100 scale where 0 is no effect and 100 is complete control

For FCc1cc(-c2ccccc2Oc2ncc(Cl)cn2)no1 [Compound 32, 5-chloro-2-[2-[5-(fluoromethyl)-3-isoxazolyl]phenoxy]pyrimidine], the pest or weed control at 125 g/ha [1, 17] was 70%, the pest or weed control at 500 g/ha [1, 18] was 90% and the pest or weed control at 125 g/ha [1, 19] was 90%. It also gave a pest or weed control at 500 g/ha [1, 19] of 90%, a Corn plant response rating (crop injury, 0 = no effect, 100 = complete kill) at 125 g/ha (corn (Zea mays) [2]; [17]) of 10% and a Corn plant response rating (crop injury, 0 = no effect, 100 = complete kill) at 500 g/ha (corn (Zea mays) [2]; [18]) of 50%. It also gave a Corn plant response rating (crop injury, 0 = no effect, 100 = complete kill) at 125 g/ha (corn (Zea mays) [2]; [19]) of 0%, a Corn plant response rating (crop injury, 0 = no effect, 100 = complete kill) at 500 g/ha (corn (Zea mays) [2]; [19]) of 0% and a pest or weed control at 125 g/ha [3, 17] of 70%. The pest or weed control at 500 g/ha [3, 18] was 90%, the pest or weed control at 125 g/ha [3, 19] was 90% and the pest or weed control at 500 g/ha [3, 19] was 100%. It also gave a pest or weed control at 125 g/ha [4, 17] of 100%, a pest or weed control at 500 g/ha [4, 18] of 100% and a pest or weed control at 125 g/ha [4, 19] of 100%. The pest or weed control at 500 g/ha [4, 19] was 100%, the plant injury at 125 g/ha [5, 17] was 30% and the plant injury at 500 g/ha [5, 18] was 60%. It also gave a plant injury at 125 g/ha [5, 19] of 0%, a plant injury at 500 g/ha [5, 19] of 10% and a pest or weed control at 8 g/ha ([6]; 8 g ai/ha) of 0%. For the same compound, the pest or weed control at 16 g/ha ([6]; 16 g ai/ha) was 0%, the pest or weed control at 31 g/ha ([6]; 31 g ai/ha) was 0% and the pest or weed control at 62 g/ha ([6]; 62 g ai/ha) was 10%. For the same compound, the pest or weed control at 62 g/ha ([7]; 62 g ai/ha, read-out: Plant response rating (scale 0 to 100), Barnyardgrass) was 98%, the pest or weed control at 8 g/ha ([7]; 8 g ai/ha, scale 0 to 100 (0 no effect, 100 complete control), read-out: Plant response rating, Barnyardgrass) was 0% and the pest or weed control at 16 g/ha ([7]; 16 g ai/ha, scale 0 to 100 (0 no effect, 100 complete control), read-out: Plant response rating, Barnyardgrass) was 5%. The pest or weed control at 31 g/ha ([7]; 31 g ai/ha, scale 0 to 100 (0 no effect, 100 complete control), read-out: Plant response rating, Barnyardgrass) was 55%, the pest or weed control at 8 g/ha ([8]; 8 g ai/ha) was 0% and the pest or weed control at 16 g/ha ([8]; 16 g ai/ha) was 0%. It also gave a pest or weed control at 31 g/ha ([8]; 31 g ai/ha) of 30%, a pest or weed control at 62 g/ha ([8]; 62 g ai/ha) of 35% and a Corn plant response rating (crop injury, 0 = no effect, 100 = complete kill) at 8 g/ha (corn (Zea mays) [9]; 8 g ai/ha) of 0%. The Corn plant response rating (crop injury, 0 = no effect, 100 = complete kill) at 16 g/ha (corn (Zea mays) [9]; 16 g ai/ha) was 0%, the Corn plant response rating (crop injury, 0 = no effect, 100 = complete kill) at 31 g/ha (corn (Zea mays) [9]; 31 g ai/ha) was 0% and the Corn plant response rating (crop injury, 0 = no effect, 100 = complete kill) at 62 g/ha (corn (Zea mays) [9]; 62 g ai/ha) was 0%. It also gave a pest or weed control at 8 g/ha ([10]; 8 g ai/ha) of 0%, a pest or weed control at 16 g/ha ([10]; 16 g ai/ha) of 25% and a pest or weed control at 31 g/ha ([10]; 31 g ai/ha) of 65%. For the same compound, the pest or weed control at 62 g/ha ([10]; 62 g ai/ha) was 75%, the pest or weed control at 8 g/ha ([11]; 8 g ai/ha) was 0% and the pest or weed control at 16 g/ha ([11]; 16 g ai/ha) was 35%. The pest or weed control at 31 g/ha ([11]; 31 g ai/ha) was 85%, the pest or weed control at 62 g/ha ([11]; 62 g ai/ha) was 95% and the pest or weed control at 8 g/ha ([12]; 8 g ai/ha) was 95%. The pest or weed control at 16 g/ha ([12]; 16 g ai/ha) was 95%, the pest or weed control at 31 g/ha ([12]; 31 g ai/ha) was 98% and the pest or weed control at 62 g/ha ([12]; 62 g ai/ha) was 100%. For the same compound, the pest or weed control at 8 g/ha ([13]; 8 g ai/ha) was 0%, the pest or weed control at 16 g/ha ([13]; 16 g ai/ha) was 0% and the pest or weed control at 31 g/ha ([13]; 31 g ai/ha) was 5%. It also gave a pest or weed control at 62 g/ha ([13]; 62 g ai/ha) of 0%, a pest or weed control at 8 g/ha ([14]; 8 g ai/ha) of 100% and a pest or weed control at 16 g/ha ([14]; 16 g ai/ha) of 100%. For the same compound, the pest or weed control at 31 g/ha ([14]; 31 g ai/ha) was 98%, the pest or weed control at 62 g/ha ([14]; 62 g ai/ha) was 100% and the pest or weed control at 8 g/ha ([15]; 8 g ai/ha) was 75%. It also gave a pest or weed control at 16 g/ha ([15]; 16 g ai/ha) of 60%, a pest or weed control at 31 g/ha ([15]; 31 g ai/ha) of 75% and a pest or weed control at 62 g/ha ([15]; 62 g ai/ha) of 70%. The pest or weed control at 8 g/ha ([16]; 8 g ai/ha) was 100%, the pest or weed control at 16 g/ha ([16]; 16 g ai/ha) was 100% and the pest or weed control at 31 g/ha ([16]; 31 g ai/ha) was 100%. For the same compound, the pest or weed control at 62 g/ha ([16]; 62 g ai/ha) was 98%.
